Activity calls are given as the source filed them.
Assays:
Prothrombin = Prothrombin (Homo sapiens, UniProt P00734); test: Thrombin 1536 HTS Dose Response Confirmation. [Related pubchem assays: 1046 (Thrombin 1536 HTS; hits were confirmed in this assay)]; assay type: functional
Nonstructural protein 1 = Nonstructural protein 1 (Influenza A virus, UniProt Q194T2); assay type: functional, Influenza A virus (A/California/07/2009(H1N1))
[1] = target: T1, Short transient receptor potential channel 4 (Mus musculus, UniProt Q9QUQ5); test: mouse TRPC4 channel inhibitors, dose response, cell-based, HEK293 TRPC4/mu-opioid, Fluo-4 calcium (AID 434942); assay type: functional;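 further: potency of inhibitors blocking the TRPC4 calcium response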
T1 sequence (Q9QUQ5 whole entry): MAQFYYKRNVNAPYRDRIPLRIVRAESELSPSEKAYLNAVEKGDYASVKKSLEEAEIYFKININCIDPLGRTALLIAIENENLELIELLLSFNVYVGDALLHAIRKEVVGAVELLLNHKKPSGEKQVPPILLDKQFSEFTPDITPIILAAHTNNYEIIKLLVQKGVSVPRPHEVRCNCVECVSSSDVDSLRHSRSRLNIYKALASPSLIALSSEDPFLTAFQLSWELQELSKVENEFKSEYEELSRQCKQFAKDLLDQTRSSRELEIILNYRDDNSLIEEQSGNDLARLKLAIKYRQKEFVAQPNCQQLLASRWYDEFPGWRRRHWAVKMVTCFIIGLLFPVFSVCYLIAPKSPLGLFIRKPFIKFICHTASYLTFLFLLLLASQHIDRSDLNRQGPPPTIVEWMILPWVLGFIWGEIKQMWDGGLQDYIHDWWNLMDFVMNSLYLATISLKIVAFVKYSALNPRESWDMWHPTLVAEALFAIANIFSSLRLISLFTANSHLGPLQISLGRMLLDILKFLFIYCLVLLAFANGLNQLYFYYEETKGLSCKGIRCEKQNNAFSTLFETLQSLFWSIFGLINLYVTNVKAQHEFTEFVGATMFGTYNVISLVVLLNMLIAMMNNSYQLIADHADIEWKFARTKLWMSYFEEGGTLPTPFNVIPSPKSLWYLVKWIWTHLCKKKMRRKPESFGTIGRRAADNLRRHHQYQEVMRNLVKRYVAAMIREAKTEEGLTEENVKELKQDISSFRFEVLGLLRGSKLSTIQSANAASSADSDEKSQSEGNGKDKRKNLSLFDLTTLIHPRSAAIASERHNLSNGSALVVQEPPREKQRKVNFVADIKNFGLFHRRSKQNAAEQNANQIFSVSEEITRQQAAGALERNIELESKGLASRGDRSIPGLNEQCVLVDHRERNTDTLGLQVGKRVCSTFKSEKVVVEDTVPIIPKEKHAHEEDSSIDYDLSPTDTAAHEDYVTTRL

[2] = target: Glyceraldehyde-3-phosphate dehydrogenase (Homo sapiens, UniProt P04406)
[3] = target: T2, Carboxy-terminal domain RNA polymerase II polypeptide A small phosphatase 1 (Homo sapiens, UniProt Q9GZU7); test: inhibitors of CTDSP1, concentration-response testing, biochemical assay, absorbance-based, actives from ultra-high-throughput screening (AID 540297); assay type: functional
T2 sequence (Q9GZU7 whole entry): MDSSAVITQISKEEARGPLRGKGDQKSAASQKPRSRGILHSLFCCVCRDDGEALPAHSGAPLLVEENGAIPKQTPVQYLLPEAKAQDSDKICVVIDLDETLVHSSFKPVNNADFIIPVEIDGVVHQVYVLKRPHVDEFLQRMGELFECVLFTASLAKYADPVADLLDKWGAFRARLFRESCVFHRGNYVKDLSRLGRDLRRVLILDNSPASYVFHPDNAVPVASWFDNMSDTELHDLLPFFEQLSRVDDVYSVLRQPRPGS

[4] = cytotoxicity in HEK-293T cells, dose response, cytotoxicity control for TCR NF-kB inhibitor project, luminescence, T-cell screen hits (AID 489026); assay type: functional, cell-based;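 further: cells exposed to compound about 14 hours before the viability readout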
[5] = cytotoxicity in HEK-293T cells, dose response, cytotoxicity control for BCR NF-kB inhibitor project, luminescence, B-cell screen hits (AID 489021); assay type: functional, cell-based;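 further: HEK-293T cells carrying an NF-kB luciferase reporter; cells exposed to compound for about 14 hours before viability readout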
[6] = target: T3, Long-chain-fatty-acid--AMP ligase FadD28 (Mycobacterium tuberculosis, UniProt P9WQ59); test: Fluorescence polarization aasay to screen for inhibitors that compete for the binding of FadD28 to a bisubstrate Measured in Biochemical System Using Plate Reader - 2147-01_Inhibitor_Dose_CherryPick_Activity.; assay type: functional, Mycobacterium tuberculosis H37Rv
T3 sequence (P9WQ59 whole entry): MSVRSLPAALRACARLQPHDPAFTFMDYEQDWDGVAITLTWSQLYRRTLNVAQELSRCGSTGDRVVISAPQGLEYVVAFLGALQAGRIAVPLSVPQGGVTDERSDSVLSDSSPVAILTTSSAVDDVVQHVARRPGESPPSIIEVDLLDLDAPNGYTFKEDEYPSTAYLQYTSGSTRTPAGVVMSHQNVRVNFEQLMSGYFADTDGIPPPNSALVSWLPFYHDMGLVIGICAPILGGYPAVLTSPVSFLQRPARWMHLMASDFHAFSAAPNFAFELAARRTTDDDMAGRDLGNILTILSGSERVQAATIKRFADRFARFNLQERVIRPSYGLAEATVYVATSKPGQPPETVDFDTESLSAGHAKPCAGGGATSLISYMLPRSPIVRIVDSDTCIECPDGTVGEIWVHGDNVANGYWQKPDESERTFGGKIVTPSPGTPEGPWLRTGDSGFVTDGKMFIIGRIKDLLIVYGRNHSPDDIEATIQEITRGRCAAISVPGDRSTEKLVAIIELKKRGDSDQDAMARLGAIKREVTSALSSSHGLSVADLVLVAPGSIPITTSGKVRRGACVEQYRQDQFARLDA

[7] = target: T4, Rac GTPase-activating protein 1 (Homo sapiens, UniProt Q9H0H5); test: MgcRacGAP GTPase-activating activity inhibitors, confirmation, biochemical, ADP Hunter fluorescence, primary and confirmatory (AID 624330); assay type: functional
T4 sequence (Q9H0H5 whole entry): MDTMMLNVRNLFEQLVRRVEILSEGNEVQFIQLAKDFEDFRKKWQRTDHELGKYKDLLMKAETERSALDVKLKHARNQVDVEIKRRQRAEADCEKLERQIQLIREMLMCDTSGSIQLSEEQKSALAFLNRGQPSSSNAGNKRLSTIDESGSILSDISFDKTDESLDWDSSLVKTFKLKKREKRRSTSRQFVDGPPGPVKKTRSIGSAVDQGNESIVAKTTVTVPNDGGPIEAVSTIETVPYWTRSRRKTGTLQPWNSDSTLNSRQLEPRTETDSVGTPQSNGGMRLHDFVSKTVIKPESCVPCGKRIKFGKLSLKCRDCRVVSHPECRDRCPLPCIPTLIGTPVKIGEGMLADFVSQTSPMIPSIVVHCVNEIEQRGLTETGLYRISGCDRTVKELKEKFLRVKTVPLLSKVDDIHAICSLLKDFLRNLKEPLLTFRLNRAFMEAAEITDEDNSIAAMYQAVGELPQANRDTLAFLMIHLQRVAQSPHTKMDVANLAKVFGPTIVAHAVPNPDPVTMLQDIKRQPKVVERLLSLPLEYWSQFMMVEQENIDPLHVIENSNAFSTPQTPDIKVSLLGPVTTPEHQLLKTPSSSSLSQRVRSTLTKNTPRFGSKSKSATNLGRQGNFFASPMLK

[8] = target: Dual specificity tyrosine-phosphorylation-regulated kinase 1A (Rattus norvegicus, UniProt Q63470); assay type: biochemical, Homo sapiens
[9] = target: T5, Corticotropin-releasing factor receptor 2/Corticotropin-releasing factor-binding protein (Homo sapiens, UniProt P24387+Q13324); test: activators of CRF receptor 2 with binding protein – uHTS hits, confirmation (AID 602473); assay type: functional; details: read-out: EC50_Mean
T5 sequence (Q13324 whole entry): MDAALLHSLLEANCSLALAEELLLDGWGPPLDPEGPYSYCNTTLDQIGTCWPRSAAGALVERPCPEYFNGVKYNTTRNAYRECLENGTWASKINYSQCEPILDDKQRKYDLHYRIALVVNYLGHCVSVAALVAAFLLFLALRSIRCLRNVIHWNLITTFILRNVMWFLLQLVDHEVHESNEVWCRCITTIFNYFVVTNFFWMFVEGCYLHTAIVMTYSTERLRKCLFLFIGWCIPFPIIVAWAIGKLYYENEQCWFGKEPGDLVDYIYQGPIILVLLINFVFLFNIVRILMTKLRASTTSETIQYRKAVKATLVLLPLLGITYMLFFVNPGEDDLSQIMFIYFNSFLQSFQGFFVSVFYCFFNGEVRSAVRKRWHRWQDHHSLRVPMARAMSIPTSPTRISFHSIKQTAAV
T5 sequence (P24387 whole entry): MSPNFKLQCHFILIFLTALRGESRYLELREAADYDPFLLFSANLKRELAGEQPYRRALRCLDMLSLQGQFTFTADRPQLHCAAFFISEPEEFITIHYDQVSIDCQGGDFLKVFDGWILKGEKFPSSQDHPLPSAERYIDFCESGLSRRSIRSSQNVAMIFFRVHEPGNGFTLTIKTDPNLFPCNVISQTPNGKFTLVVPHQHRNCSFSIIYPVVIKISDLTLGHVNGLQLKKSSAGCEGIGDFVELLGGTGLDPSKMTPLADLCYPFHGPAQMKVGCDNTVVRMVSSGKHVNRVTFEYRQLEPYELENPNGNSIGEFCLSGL

[10] = HepG2 cell cytotoxicity, dose response, cytotoxicity control for Shn3 inhibitor project, CellTiter-Glo, cherry-picked (AID 624134); assay type: functional, cell-based
Cytochrome P450 3A4 = Cytochrome P450 3A4 (Homo sapiens, UniProt P08684);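 further: CYP3A4 tested as one member of a cytochrome P450 panel screen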
[11] = target: Eukaryotic translation initiation factor 4E (Mus musculus, UniProt P63073); test: eIF4E–eIF4G protein interaction inhibitors, dose response, biochemical, TR-FRET (AID 855); assay type: functional;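 further: potency for disrupting eIF4E binding to eIF4GI seen as loss of FRET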
INS1 = test: beta cell apoptosis inhibitors, cytokine rescue, dose response, luminescence, retest (AID 449756); assay type: functional, cell-based; details: Rattus norvegicus;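 further: cell death triggered by IL-1 beta plus TNF-alpha plus IFN-gamma mixture; protective hits raise ATP signal compared with cytokine alone wells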
[12] = target: Heat shock protein HSP 90-alpha (Homo sapiens, UniProt P07900); assay type: functional, organism-based
[13] = target: T1, Short transient receptor potential channel 4; test: mouse TRPC4 channel activators, dose response, cell-based, HEK293 TRPC4/mu-opioid, Fluo-4 calcium (AID 434937); assay type: functional
[14] = inhibitors of SNCA 5'UTR-driven reporter translation, confirmation, H4 neuroglioma cells, luminescence (AID 1988); assay type: functional, cell-based
[15] = inhibitors of firefly luciferase expression or activity, dose response, H4 neuroglioma cells, luminescence (AID 1990); assay type: functional, cell-based
[16] = Luminescence Cell-Based Dose Response HTS to Identify Inhibitors of 5'UTR Stem-Loop Driven Prion Protein mRNA Translation in H4 Neuroglioblastoma Cells. [Related pubchem assays: 1827 (Project Summary), 1813 (Primary HTS)]; assay type: functional

Sequence of Nonstructural protein 1 (Q194T2 whole entry): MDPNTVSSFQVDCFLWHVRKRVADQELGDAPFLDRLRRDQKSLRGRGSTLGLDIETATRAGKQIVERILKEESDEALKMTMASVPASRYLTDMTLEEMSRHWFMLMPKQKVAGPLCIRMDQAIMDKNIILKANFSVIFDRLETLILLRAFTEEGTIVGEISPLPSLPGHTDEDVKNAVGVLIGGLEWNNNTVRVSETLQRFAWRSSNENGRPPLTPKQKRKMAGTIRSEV
Sequence of Glyceraldehyde-3-phosphate dehydrogenase (P04406 whole entry, the tested form may be a part): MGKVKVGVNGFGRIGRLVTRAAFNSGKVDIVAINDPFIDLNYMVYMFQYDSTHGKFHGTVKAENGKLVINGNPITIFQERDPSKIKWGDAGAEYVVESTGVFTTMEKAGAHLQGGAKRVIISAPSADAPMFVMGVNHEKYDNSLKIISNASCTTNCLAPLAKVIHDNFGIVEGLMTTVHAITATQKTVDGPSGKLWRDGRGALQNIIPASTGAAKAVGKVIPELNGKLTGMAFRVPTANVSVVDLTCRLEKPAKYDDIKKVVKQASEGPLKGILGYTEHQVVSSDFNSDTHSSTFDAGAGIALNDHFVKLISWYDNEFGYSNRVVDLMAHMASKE
Sequence of Cytochrome P450 3A4 (P08684 whole entry): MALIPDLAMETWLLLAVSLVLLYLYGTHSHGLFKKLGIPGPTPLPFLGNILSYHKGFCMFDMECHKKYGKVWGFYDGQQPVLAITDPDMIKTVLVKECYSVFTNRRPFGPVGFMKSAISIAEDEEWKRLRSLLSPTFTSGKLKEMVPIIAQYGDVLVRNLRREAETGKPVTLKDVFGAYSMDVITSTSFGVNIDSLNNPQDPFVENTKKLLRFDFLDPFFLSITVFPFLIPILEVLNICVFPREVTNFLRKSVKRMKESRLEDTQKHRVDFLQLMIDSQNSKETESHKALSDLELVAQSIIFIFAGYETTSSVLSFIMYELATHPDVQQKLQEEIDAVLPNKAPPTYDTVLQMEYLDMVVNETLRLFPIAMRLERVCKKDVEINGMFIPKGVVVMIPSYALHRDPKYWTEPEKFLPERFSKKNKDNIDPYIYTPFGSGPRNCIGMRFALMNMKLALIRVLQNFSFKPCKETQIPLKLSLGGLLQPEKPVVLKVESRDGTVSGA
Sequence of Eukaryotic translation initiation factor 4E (P63073 whole entry): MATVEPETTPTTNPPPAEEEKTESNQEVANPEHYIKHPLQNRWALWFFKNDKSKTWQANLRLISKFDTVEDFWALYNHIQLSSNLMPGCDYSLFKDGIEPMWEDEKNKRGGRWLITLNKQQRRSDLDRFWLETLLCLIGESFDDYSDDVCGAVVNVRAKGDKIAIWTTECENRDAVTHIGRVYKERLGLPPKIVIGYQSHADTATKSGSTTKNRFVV

## S=C(NCc1cccs1)NCC1CCCO1 (configuration not stated)
Prothrombin
  IC50: > 50 µM (not active)

## CN1CCN(c2cc(N3CCN(C(=O)c4ccco4)CC3)c3c4c(onc24)-c2ccccc2C3=O)CC1
Nonstructural protein 1
  IC50: 15.3 µM (active)

## COc1ccc(Nc2nc(N)c3ccccc3n2)c(OC)c1
[1]
  EC50: 4.22 µM (active)

## O=C1C2C3C=CC(C3)C2C(=O)N1c1n[nH]c(CCc2ccccc2)n1 (configuration not stated)
[2]
  IC50: > 100 µM (not active)

## CCOC(=O)CN1C(=O)S/C(=C\c2ccc(-c3ccc(C(=O)O)c(Cl)c3)o2)C1=O
[3]
  IC50: 4.84 µM (active)

## CCCC(=O)Nc1nc2ccc(S(=O)(=O)N3CCCCC3)cc2s1
[4]
  IC50: > 80 µM (inactive)

## NNC(=O)COc1ccc(-c2nccc(-c3ccc(F)cc3)n2)cc1
[5]
  IC50: > 80 µM (inactive)

## Cc1cccc(NC(=O)CN2C(=O)S/C(=C\c3cccn3-c3cccc(C(=O)O)c3)C2=O)c1
[3]
  IC50: 6.83 µM (active)
[6]
  AC50: 0.519 µM (active)

## COc1ccc(Nc2c3c(nc4ccccc24)CCC3)cc1
[1]
  EC50: 4.22 µM (active)

## COc1cc(/C=C2\SC(=S)N(NC(=O)c3cccc(O)c3)C2=O)ccc1O
[7]
  IC50: 54.8 µM (active)
[8]
  AC50: 6.23 µM (active)
[6]
  AC50: 32 µM (inactive)

## CCOc1ccc(Br)cc1C1=CC(=O)C[C@H](c2ccc(OC)cc2)C1
[4]
  IC50: > 80 µM (inactive)
[9]
  EC50: > 53 µM (inactive)
[10]
  AC50: > 70 µM (inactive)

## CCOc1ccc(C(=O)NCC(=O)OC(C)C(=O)NCc2ccco2)cc1OCC (configuration not stated)
Prothrombin
  IC50: > 50 µM (not active)

## Cc1c(OC(=O)c2ccc([N+](=O)[O-])cc2)c2c(c[n+]1C)COC(C)(C)OC2
Cytochrome P450 3A4
  AC50: 7.08 µM (inconclusive)
[11]
  IC50: > 64 µM (inactive)
[3]
  IC50: 4.14 µM (active)

## CSCC[C@H](NS(=O)(=O)c1ccc(C(C)=O)cc1)c1nnc2ccccn12
[3]
  IC50: 5.88 µM (active)

## CC(C)CN(CC(C)C)c1nc(N)c(C#N)c(CC#N)c1C#N
[1]
  EC50: 5.96 µM (active)

## Cc1cc(N(C)C)ccc1N=Nc1ccc2ncccc2c1
Nonstructural protein 1
  IC50: 9.43 µM (active)

## Cc1c(C)c2cccnc2c2ncccc12
INS1
  AC50: 1.57 µM (active)
[12]
  AC50: 3.99 µM (active)
[4]
  IC50: > 80 µM (inactive)

## COc1ccc(CNc2nc(-c3cccnc3)nn2C(=O)c2ccco2)cc1
Prothrombin
  IC50: 1.19 µM (active)

## COc1ccc(/C=C2\SC(=O)NC2=S)cc1OC
[8]
  AC50: 9.55 µM (active)

## C=CCOC(=O)COc1cc(C)cc2oc(=O)c3c(c12)CCC3
[5]
  IC50: > 80 µM (inactive)

## O=C1C(Cl)=C(N2CCOCC2)C(=O)N1c1ccnc(Cl)c1
[2]
  IC50: > 50 µM (inconclusive)

## CCn1cc(CN2CCC(n3nccc3NC(=O)CCCc3ccccc3)CC2)cn1
[13]
  EC50: 1.33 µM (active)
[1]
  EC50: 1.19 µM (active)

## COc1ccc(/C=N/NC(=O)COc2ccccc2-c2ccccc2)cc1
[14]
  EC50: 0.166 µM (active)
[15]
  EC50: 8.05 µM (active)
[16]
  EC50: 0.483 µM (active)
[4]
  IC50: > 80 µM (inactive)

## CCCc1noc2c1/C(=N\O)CC(CC(C)SCC)C2 (configuration not stated)
[1]
  EC50: 1.5 µM (active)

Reference: ChEMBL document CHEMBL1201862, “PubChem BioAssay data set” (2004)
